Results on 9 compounds are retold here after patent US20080220497A1, “Modulation of protein functionalities” (priority 2003, published 2008).

The target in experiment [1] is T1, c-Abl kinase (Homo sapiens, UniProt P00519).
T1 construct: other: c-Abl kinase
Briefly: Fluorescence affinity assay for Abl kinase (PD 166326 fluoroprobe). The note with it: read-out: EC50 for accelerating the binding of fluoroprobe PD 166326; c-Abl kinase; early time-point binding. In kind it is binding. Here is the method:
(§1) Tris buffer: 90 mM Tris-HCl buffer, pH 7.5, containing 0.2% octyl-glucoside • 4. […] Polarstar Optima plate reader (BMG) or equivalent
(§2) B. Procedure: • 1. Make Solution A containing 80 nM Abl in the Tris buffer • 2. Serially dilute test compounds in Solution A (50 uL per well) • 3. Incubate the plate at room temp for 0.5 h • 4.
(§3) Abl kinase was preincubated with test compounds for […] in the absence of fluoroprobe. […] By comparison of RFU (relative fluorescence units) values with that of a control (in the absence of small molecule modulators), the percentage of modulation at each concentration of the small molecules was calculated.

For a further experiment, the target named is p38-alpha kinase (Homo sapiens, UniProt Q16539). Conditions: time-dependent if IC50 values decrease with reaction time (more than two-fold in four hours).
The target of the next experiment is T2, V599E Braf kinase (Homo sapiens, UniProt P15056, V600E).
T2 construct: 6×His-tag (N); made in house; host or cells: Sf9 insect cells (baculovirus)
Briefly: Thermal denaturation of oncogenic V599E Braf kinase. It is filed as binding. Conditions: 1.4 μM V599E Braf kinase, 20 μM small molecule; read-out: ΔTm (° C.) relative to unphosphorylated B-Raf(V599E). Here is the method:
(§4) Denaturation was monitored by measuring the absolute absorbance of the solutions at an appropriate wavelength (typically 230 nm and 240 nm) as a function of temperature. As the protein became denatured, additional UV absorbing functional groups became exposed causing an increase in absorbance at the melting temperature. […] The thermal data were collected using Agilent spectrophotometers and ChemStation UV/Vis Thermal Denaturation software.
(§5) The final solution was transferred to a 50 μL cuvette for analysis.
as §5
(§6) A first derivative calculation with data smoothing was applied to the resulting data to report the point of inflection as the melting temperature.

Experiment [2] has as its system c-Abl kinase. Briefly: Fluorescence affinity assay for Abl kinase (PD 166326 fluoroprobe). In kind it is binding, human. Conditions: 100 nM PD 166326, 40 nM Abl kinase. Here is the method: as §1, §2, §3
The next experiment relates to Abl kinase. Briefly: Thermal denaturation of Abl kinase. In kind it is binding, human. Conditions: 1 μM Abl kinase, 20 μM small molecule. Here is the method:
as §4
5 μL of 40 μM Abl kinase was mixed with 195 μL of the small molecule/buffer solution. The final concentration was 1 μM Abl kinase and 20 μM small molecule. The final protein and buffer solution was mixed gently using a pipetter to minimize denaturing due to over aggressive mixing. The final solution was transferred to a 50 μL cuvette for analysis.
Test solutions containing only the Abl kinase were prepared as follows: 5 μL of 40 μM Abl kinase was mixed with 195 μL Buffer to give a concentration of 1 μM Abl kinase in Buffer. The protein and buffer solution was mixed gently using a pipetter to minimize denaturing due to over aggressive mixing. The final solution was transferred to a 50 μL cuvette for analysis.
as §6

Experiment [3] deals with T3, unphosphorylated p38-alpha kinase (Homo sapiens, UniProt Q16539, DEL261-261).
T3 construct: 48 (6×His-TEV tag, full length); 6×His-TEV tag (N); purchased Decode Genetics, Inc; host or cells: E. coli
Briefly: Fluorescence affinity assay, unphosphorylated p38-alpha kinase. It is filed as binding. From the text: (§7) This fluorescence affinity assay is utilized in an affinity-based screen to identify small molecules which bind into switch control pockets of protein kinases. Binding of small molecule switch inhibitors displaces the switch control ligand phenylalanine of the DFG motif into an orientation which sterically blocks the ATP pocket. Such inhibitor-induced blockade of the ATP pocket is registered as an inhibition of binding of the fluoroprobe into the ATP pocket.
(§8) • 1. p38-alpha kinase • a. […] Polarstar Optima plate reader (BMG)
• 1. […] This dilution can be done automatically on a Tecan (or similar) robotic workstation or performed manually. • 3. Mix Solution A with the diluted compound solutions following Step 3 of Table 22. This step can be performed automatically on a Tecan (or similar) robotic workstation or performed manually. • 4. Incubate at 30° C. or room temp for 2 h, depending on protein stability. • 5. Read at emission wavelength 420 nm upon excitation at 340 nm.
The reaction was initiated by addition of the enzyme. […] By comparison of RFU (relative fluorescence units) values with that of a control (in the absence of small molecule modulators), the percentage of inhibition at each concentration of the small molecules was calculated. IC50 values for the small molecule modulators were calculated from the % inhibition values obtained at a range of concentrations of the small molecule modulators using Prism (available from GraphPad, Inc.). When time-dependent inhibition was assessed, the plate was read at multiple reaction times such as 0.5, 1, 2, 3, 4 and 6 hours. The IC50 values were calculated at each time point. An inhibition was assigned as time-dependent if the IC50 values decrease with the reaction time (more than two-fold in four hours).
(§9) A ratio greater than 1.0 indicates a preference for inhibiting the unphosphorylated form of p38-alpha kinase relative to the doubly phosphorylated form. A ratio less than 1.0 indicates a preference for inhibiting the doubly phosphorylated form of p38-alpha kinase relative to the unphosphorylated form.

Experiment [4] has as its target T4, doubly phosphorylated p38-alpha kinase (Homo sapiens, UniProt Q16539).
T4 construct: 6xHis ([…], seen only in the listing) (C); purchased Roche Applied Diagnostics
As to the kind of experiment: Thermal denaturation of doubly phosphorylated p38-alpha kinase. In kind it is binding. Conditions: 0.5 μM p38-alpha kinase, 20 μM small molecule. Here is the method:
as §4
The final concentration was 0.5 μM p38-alpha kinase and 20 μM small molecule. The final protein and buffer solution was mixed gently using a pipetter to minimize denaturing due to over aggressive mixing. The final solution was transferred to a 50 μL cuvette for analysis.
The protein and buffer solution was mixed gently using a pipetter to minimize denaturing due to over aggressive mixing. The final solution was transferred to a 50 μL cuvette for analysis.
as §6

Experiment [5] has as its target T4, doubly phosphorylated p38-alpha kinase. Briefly: Fluorescence affinity assay, doubly phosphorylated p38-alpha kinase. It is filed as binding. The note with it: ~24 nM enzyme; 1.0 uM SKF-86002; read-out: FP IC50 P-p38-alpha.
From the text: as §7, §8
• 1. […] This dilution can be done automatically on a Tecan (or similar) robotic workstation or performed manually. • 3. Mix Solution A with the diluted compound solutions following Step 3 of Table 22. This step can be performed automatically on a Tecan (or similar) robotic workstation or performed manually. • 4. Incubate at 30° C. or room temp for 2 h, depending on protein stability. • 5. Read at emission wavelength 420 nm upon excitation at 340 nm. […]
as §9

The next experiment has as its target T5, Phospho-p38-alpha kinase (Homo sapiens, UniProt Q16539).
T5 construct: 6xHis ([…], seen only in the listing) (C); purchased Roche Applied Diagnostics
As to the kind of experiment: Spectrophotometric assay for phospho-p38-alpha kinase. Conditions: p38-alpha kinase biochemical assay.

In experiment [6] the target is T3, unphosphorylated p38-alpha kinase. Briefly: Thermal denaturation of unphosphorylated p38-alpha kinase. It is filed as binding. The note with it: […] p38-alpha kinase, 15 μM small molecule.
From the text: as §4
The final protein and buffer solution was mixed gently using a pipetter to minimize denaturing due to over aggressive mixing. The final solution was transferred to a 50 μL cuvette for analysis.
as §5, §6

Sequence of p38-alpha kinase (Q16539 whole entry): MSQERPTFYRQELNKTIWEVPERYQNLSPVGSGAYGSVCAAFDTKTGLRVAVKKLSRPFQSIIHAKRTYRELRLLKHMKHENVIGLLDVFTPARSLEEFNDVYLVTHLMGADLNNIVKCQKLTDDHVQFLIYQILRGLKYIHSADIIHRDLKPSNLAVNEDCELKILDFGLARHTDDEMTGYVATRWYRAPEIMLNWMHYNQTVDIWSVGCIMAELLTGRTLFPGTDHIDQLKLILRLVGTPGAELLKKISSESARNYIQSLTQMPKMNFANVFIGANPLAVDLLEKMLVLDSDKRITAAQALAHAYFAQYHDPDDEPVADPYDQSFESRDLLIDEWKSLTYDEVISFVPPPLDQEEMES
T3 sequence (Q16539 with tags, fused parts or gaps DEL261-261): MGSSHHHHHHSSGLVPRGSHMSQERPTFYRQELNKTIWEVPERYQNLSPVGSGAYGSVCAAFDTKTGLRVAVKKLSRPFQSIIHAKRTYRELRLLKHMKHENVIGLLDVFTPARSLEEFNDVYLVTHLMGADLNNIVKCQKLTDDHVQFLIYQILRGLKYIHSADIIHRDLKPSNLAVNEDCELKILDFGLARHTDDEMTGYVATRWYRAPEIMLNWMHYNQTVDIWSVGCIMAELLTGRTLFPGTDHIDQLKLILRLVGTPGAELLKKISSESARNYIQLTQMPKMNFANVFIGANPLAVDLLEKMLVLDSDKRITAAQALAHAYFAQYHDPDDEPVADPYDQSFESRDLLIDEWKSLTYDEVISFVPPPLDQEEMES
T1 sequence (P00519 1-1149 isoform P00519-2): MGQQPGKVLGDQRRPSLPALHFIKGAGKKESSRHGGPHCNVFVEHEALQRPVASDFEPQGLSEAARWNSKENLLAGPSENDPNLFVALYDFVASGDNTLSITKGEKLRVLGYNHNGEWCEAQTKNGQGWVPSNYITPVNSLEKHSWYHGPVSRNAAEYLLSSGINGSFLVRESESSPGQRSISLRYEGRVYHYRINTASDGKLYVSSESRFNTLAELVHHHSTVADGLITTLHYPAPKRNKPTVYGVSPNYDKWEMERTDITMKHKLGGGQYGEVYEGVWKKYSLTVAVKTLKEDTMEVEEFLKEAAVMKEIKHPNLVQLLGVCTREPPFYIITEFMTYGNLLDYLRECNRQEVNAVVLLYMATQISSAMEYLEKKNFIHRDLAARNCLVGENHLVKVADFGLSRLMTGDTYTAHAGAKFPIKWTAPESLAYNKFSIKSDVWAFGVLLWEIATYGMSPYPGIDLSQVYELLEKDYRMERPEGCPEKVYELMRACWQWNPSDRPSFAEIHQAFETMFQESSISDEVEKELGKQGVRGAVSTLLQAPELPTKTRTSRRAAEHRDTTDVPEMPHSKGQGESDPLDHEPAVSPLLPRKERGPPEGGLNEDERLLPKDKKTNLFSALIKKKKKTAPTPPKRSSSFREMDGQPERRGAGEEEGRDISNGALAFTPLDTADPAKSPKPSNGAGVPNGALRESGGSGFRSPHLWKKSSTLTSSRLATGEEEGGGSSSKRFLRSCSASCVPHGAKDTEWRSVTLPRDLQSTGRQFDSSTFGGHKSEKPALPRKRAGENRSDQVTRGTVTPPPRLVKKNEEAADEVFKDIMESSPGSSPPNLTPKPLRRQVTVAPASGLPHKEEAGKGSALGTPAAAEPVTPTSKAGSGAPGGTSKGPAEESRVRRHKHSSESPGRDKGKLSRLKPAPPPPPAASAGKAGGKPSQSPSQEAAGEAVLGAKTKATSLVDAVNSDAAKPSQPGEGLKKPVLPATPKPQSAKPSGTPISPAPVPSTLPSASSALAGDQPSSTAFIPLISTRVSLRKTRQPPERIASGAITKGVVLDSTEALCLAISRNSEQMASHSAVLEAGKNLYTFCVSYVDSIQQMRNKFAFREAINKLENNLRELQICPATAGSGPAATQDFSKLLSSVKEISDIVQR
T2 sequence (P15056 with tags, fused parts or gaps V600E): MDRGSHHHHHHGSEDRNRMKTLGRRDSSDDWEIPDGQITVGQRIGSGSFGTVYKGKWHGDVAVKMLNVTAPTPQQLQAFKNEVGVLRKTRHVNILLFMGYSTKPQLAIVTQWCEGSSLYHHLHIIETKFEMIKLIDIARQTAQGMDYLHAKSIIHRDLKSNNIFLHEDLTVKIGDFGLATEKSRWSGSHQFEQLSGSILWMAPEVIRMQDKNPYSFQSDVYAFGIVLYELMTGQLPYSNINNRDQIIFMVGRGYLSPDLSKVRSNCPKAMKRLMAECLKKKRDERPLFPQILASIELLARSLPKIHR
T4 sequence (Q16539 with tags, fused parts or gaps): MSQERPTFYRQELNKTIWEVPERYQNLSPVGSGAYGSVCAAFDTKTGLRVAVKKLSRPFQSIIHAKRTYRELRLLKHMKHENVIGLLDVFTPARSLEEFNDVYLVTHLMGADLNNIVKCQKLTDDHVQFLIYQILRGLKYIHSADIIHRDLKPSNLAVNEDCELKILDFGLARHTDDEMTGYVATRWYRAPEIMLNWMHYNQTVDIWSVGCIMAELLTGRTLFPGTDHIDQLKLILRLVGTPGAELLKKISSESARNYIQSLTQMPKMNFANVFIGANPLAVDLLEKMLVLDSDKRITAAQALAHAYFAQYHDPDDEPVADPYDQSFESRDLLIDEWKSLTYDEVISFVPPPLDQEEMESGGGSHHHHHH
T5 sequence (Q16539 with tags, fused parts or gaps): as above
Experimental for Phospho-p38-alpha kinase: Spectrophotometric Assay for Phospho-p38-alpha Kinase
NADH (Sigma): 5.6 mM • 5. Phosphoenol pyruvate (Sigma): 20 mM • 6. […] ATP (20 mM) • 8. […] Polarstar Optima plate reader (BMG)
IC50 determinations were performed using a serial dilution scheme to dilute inhibitor in DMSO, followed by further dilution in reaction buffer, and finally mixing with Mixture 1 (Table 29) which contains all the enzymes. The dilution procedure ensured that the test compound at various concentrations was properly dissolved into the buffer and enzyme reaction mixture.
Prepare Mixture 1 as described in Table 29 (use within 30 min) • 3. Mix the diluted compound with Mixture 1 following Step 3 of Table 28 • 4. Incubate the 384-well plate at 30° C. for 2 hours • 5. Add 1 μL of 30 mM ATP into each well and mix well • 6. Read on the microplate reader with one point every min for at least 2.5 hours at 30° C.
A linear regression was applied to data collected from t=1.5 hr to 2.5 hr to obtain the reaction rate for each data set. The data were approximately linear within this time frame. Percentage of inhibition was calculated by comparison of the rate in the presence of a compound with that of the control. IC50 values were calculated from a series of % inhibition values determined at a range of inhibitor concentrations using GraphPad Prism (version 4).

As a reminder, the EC50 is the concentration giving half of the maximal effect. Take `CC(C)(C)c1cc(NC(=O)Nc2cccc(Cl)c2Cl)n(-c2ccc3c(c2)C[C@@H](C(=O)O)NC3)n1` [Example 65, (3S)-6-(3-tert-butyl-5-(3-(2,3-dichlorophenyl)ureido)-1H-pyrazol-1-yl)-1,2,3,4-tetrahydroisoquinoline-3-carboxylic acid]: the EC50 at c-Abl kinase [1] came out at 81 nM.

As for `CC(C)(C)c1cc(NC(=O)Nc2cccc3ccccc23)n(-c2cccc(CC(=O)N3CCOCC3)c2)n1` [Example 21, 1-(3-tert-butyl-1-(3-(2-morpholino-2-oxoethyl)phenyl)-1H-pyrazol-5-yl)-3-(naphthalen-1-yl)urea], the Time-dependent entry at p38-alpha kinase was “Yes”.

Take `CC1(C(=O)O)CC2(C)CC(C)(C1)C(=O)N(Cc1cccc(-n3nc(C(C)(C)C)cc3NC(=O)Nc3ccc(Cl)cc3)c1)C2=O` (stereo not shown) [Example 12]: the Time-dependent result on p38-alpha kinase is reported as “No”.

For the compound `CC(C)(C)c1cc(NC(=O)Nc2cccc3ccccc23)n(-c2ccc(CN)cc2)n1` [Example 45], the Time-dependent result on p38-alpha kinase is on record as “No”.

A word on the ΔTm: it is the shift of the melting midpoint relative to a reference. Consider `CC(C)(C)c1cc(NC(=O)Nc2cccc(Cl)c2Cl)n(-c2ccc3c(c2)CCNC3)n1` [Example 66, 1-(3-tert-butyl-1-(1,2,3,4-tetrahydroisoquinolin-6-yl)-1H-pyrazol-5-yl)-3-(2,3-dichlorophenyl)urea], for which the thermal shift (ΔTm) at 20 µM at V599E Braf kinase turned out to be 15.8 °C. Also, at c-Abl kinase [1], the EC50 amounted to 30 nM. The “Effect on binding of fluoroprobe PD 166326 to Abl kinase” value in the experiment on c-Abl kinase [2] is given as “concentration-dependent acceleration of the binding of fluoroprobe PD 166326”. Moreover, the “ΔTm (° C.) relative to unphosphorylated Abl” value in the experiment with Abl kinase came to 3.2 °C.

For `CC(C)(C)c1cc(NC(=O)Nc2cccc(Cl)c2Cl)n(-c2ccc3c(c2)CN(S(C)(=O)=O)CC3)n1` [Example 80], the ΔTm at 20 µM at V599E Braf kinase was determined as 14.6 °C. Further, the “ΔTm (° C.) relative to unphosphorylated Abl” value in the experiment with Abl kinase is 2.3 °C.

The term IC50 denotes the point on the concentration scale where inhibition reaches its midpoint. `CC(C)(C)c1cc(NC(=O)Nc2cccc3ccccc23)n(-c2ccc(CO)cc2)n1` [Example 72]: the “Ratio IC50s” value in [3] (doubly phosphorylated vs unphosphorylated p38-alpha, >1.0 = preference for unphosphorylated form) came to 1.7. Further, the half-maximal inhibitory concentration (IC50) amounted to 40 nM in experiment [3] (~24 nM enzyme, 1.0 uM SKF-86002, read-out: FP IC50 U-p38-alpha) and 67 nM in experiment [5]. Besides, in experiment [4], the “ΔTm (° C.) relative to doubly phosphorylated p38” value was found to be 8.1 °C. The “Competition with ATP” value at Phospho-p38-alpha kinase is reported as “non-competitive with ATP”. Further, in experiment [6], the “ΔTm (° C.) relative to unphosphorylated apo p38” value worked out at 11.3 °C.

For the compound `CC1(C(=O)O)CC2(C)CC(C)(C1)C(=O)N(Cc1cccc(-n3nc(C(C)(C)C)cc3NC(=O)Nc3cccc4ccccc34)c1)C2=O` (stereo not shown) [Example 11], at p38-alpha kinase, the Time-dependent result is reported as “No”.

Consider `CC(C)(C)c1cc(NC(=O)Nc2cccc(Cl)c2Cl)n(-c2ccc3c(c2)CNCC3)n1` [Example 64, 1-(3-tert-butyl-1-(1,2,3,4-tetrahydroisoquinolin-7-yl)-1H-pyrazol-5-yl)-3-(2,3-dichlorophenyl)urea], for which, at c-Abl kinase [1], the EC50 was 43 nM. Also, in the experiment with Abl kinase, the “ΔTm (° C.) relative to unphosphorylated Abl” value amounted to 2.6 °C.
